Experimental data: patent US7704995B2 (Exelixis, Inc., priority 2003, dated 2010)

Target: T1, PKCe (Homo sapiens, UniProt Q02156)
T1 sequence (Q02156 1-737): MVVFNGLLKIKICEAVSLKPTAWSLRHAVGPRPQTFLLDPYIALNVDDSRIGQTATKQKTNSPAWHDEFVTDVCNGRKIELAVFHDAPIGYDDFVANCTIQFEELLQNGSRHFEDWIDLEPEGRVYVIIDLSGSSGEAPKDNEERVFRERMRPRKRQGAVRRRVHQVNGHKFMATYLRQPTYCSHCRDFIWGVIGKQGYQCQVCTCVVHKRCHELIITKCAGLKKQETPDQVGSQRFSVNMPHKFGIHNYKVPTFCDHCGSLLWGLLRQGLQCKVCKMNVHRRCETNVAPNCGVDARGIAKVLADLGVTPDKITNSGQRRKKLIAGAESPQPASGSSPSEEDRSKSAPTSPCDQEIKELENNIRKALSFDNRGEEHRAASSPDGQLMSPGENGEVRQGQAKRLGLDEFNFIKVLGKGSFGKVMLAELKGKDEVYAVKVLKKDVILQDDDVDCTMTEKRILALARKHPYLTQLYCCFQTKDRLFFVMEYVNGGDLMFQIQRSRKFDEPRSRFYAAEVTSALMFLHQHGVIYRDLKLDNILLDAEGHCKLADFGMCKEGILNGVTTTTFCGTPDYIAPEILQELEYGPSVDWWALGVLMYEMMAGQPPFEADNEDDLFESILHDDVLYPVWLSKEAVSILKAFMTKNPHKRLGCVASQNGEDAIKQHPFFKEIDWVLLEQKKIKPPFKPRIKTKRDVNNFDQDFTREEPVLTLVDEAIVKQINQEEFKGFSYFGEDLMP
Experiment: Kinase specificity assay (33P phosphoryl transfer, LCCA or AlphaScreen)
Type: biochemical
Details: ATP close to KM; read-out: PKCe inhibition, IC50
Description: Kinase activity and compound inhibition are investigated using one or more of the three assay formats described below. The ATP concentrations for each assay are selected to be close to the Michaelis-Menten constant (KM) for each individual kinase. Dose-response experiments are performed at 10 different inhibitor concentrations in a 384-well plate format. The data are fitted to the following four-parameter equation: Y=Min+(Max−Min)/(1+(X/IC50)^H) where Y is the observed signal, X is the inhibitor concentration, Min is the background signal in the absence of enzyme (0% enzyme activity), Max is the signal in the absence of inhibitor (100% enzyme activity), IC50 is the inhibitor concentration at 50% enzyme inhibition and H represents the empirical Hill's slope to measure the cooperativity. Typically H is close to unity. ^33P Phosphoryl Transfer Assay:
Greiner 384-well white, clear bottom, high binding plates are coated with 2 μg/well of protein or peptide substrate in a 50 μL volume overnight at ambient temperature. The coating buffer typically contains 40 μg/mL substrate, 22.5 mM Na2CO3, 27.5 mM NaHCO3, 150 mM NaCl and 3 mM NaN3. The coating solution is aspirated and the plates are washed once with 50 μL of assay buffer and padded dry. Subsequently compounds and enzymes are mixed with γ^33P-ATP (3.3 μCi/nmol) in a total volume of 20 uL in suitable assay buffers. The mixture is incubated at ambient temperature for 1.5-2.5 hrs and terminated by aspiration using a Molecular Devices EMBLA 96-head plate washer. The plates are subsequently washed 6-12 times with PBST or TBS buffer. Scintillation fluid (50 μl/well) is then added, the plates are sealed and activity assessed by liquid scintillation spectrometry using a Perkin Elmer MicroBeta TriLux.
In the LCCA assays, kinase activity is measured as the percent ATP consumed following the kinase reaction using luciferase-luciferin-coupled chemiluminescence. Greiner 384-well white, clear bottom, medium binding plates are used for LCCA. Briefly, the kinase reaction is initiated by mixing compounds, ATP and kinase in a 20 uL volume. The mixture is incubated at ambient temperature for 2-4 hrs. At the end of the kinase reaction, a 20 uL luciferase-luciferin mix is added and the chemiluminescent signal is read using a Wallac Victor^2 reader. The luciferase-luciferin mix consists of 50 mM HEPES, pH 7.8, 8.5 ug/mL oxalic acid (pH 7.8), 5 (or 50) mM DTT, 0.4% Triton X-100, 0.25 mg/mL coenzyme A, 63 uM AMP, 28 ug/mL luciferin and 40,000 units of light/mL luciferase. For the LCCA assays, total ATP consumption has been standardized to 25-45% and the IC50 values correlates well with those determined by radiometric assays.
AlphaScreen technology is a proximity assay which utilizes the increase in fluorescent signal when donor and acceptor beads are close in proximity. Biotinylated poly(Glu,Tyr) 4:1 is used as the kinase substrate, in conjunction with streptavidin-coated donor beads and anti-phosphortyrosine antibody PY100-coated acceptor beads. Upon phosphorylation, the peptide substrate can bind to both donor and acceptor beads giving rise to an increase in fluorescence. Compounds, ATP, biotinylated poly(Glu, Tyr) and kinases are mixed in a volume of 20 uL for 1 hr at ambient temperature using Greiner 384-well white clear bottom medium binding plates. Following incubation a 10 uL solution containing […] AlphaScreen beads, 75 mM Hepes, pH 7.4, 300 mM NaCl, 120 mM EDTA, 0.3% BSA and 0.03% Tween-20 is added to each well. After 2-16 hr incubation of the beads, plates are read in a Perkin Elmer AlphaQuest reader. The IC50 values correlates well with those of radiometric assays.

Structure (SMILES): NC(=O)c1nc(-c2cccc3ccccc23)cnc1N [Example 2, 3-Amino-6-naphthalen-1-ylpyrazine-2-carboxamide]
- IC50: ≥ 10 µM
